Results on 66 compounds are retold here after patent publication US6727264B1 (Synaptic Pharmaceutical Corporation, priority 2001, dated 2004).

SMILES strings stand for the structures.

Chain of rat MCH-1 (P97639 whole entry): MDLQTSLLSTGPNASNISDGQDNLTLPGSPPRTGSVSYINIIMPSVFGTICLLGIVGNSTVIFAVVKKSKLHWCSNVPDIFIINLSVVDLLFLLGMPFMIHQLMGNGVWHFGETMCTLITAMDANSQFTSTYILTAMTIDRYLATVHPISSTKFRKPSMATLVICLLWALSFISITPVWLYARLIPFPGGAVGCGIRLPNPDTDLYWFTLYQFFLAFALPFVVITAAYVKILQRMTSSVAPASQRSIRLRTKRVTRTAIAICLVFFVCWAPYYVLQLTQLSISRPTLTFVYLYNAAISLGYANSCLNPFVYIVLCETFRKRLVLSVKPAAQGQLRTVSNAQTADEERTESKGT

One assay has as its target rat MCH-1 (Rattus norvegicus, UniProt P97639). Description: Radioligand binding assay at cloned rat MCH1 receptor ([3H] Compound A). Also noted: host or cells: Peak rapid 293 (Peakr293) cells, transient calcium phosphate transfection, membranes. The following applies: cloned rat MCH1 receptor, membranes from Peakr293 cells, 0.08 nM [3H] Compound A; read-out: Ki (nM) rMCH1.
`CC(C)C(=O)Nc1cccc(C2CCN(CCCCC3OCCO3)CC2)c1` [Example 380]: the Ki (usually a measure of affinity in units of concentration, obtained from inhibition or displacement) was determined as 309 nM.
`CC(=O)c1cccc(OCCCCCN2CCC(c3cccc(NC(=O)C(C)C)c3)CC2)c1` [Example 381]: the Ki was determined as 235 nM.
As for `CC(=O)c1cccc(OCCCCCN2CCC(c3cccc(NC(=O)C4CC4)c3)CC2)c1` [Example 382], the Ki stood at 319 nM.
Regarding `CC(=O)c1cccc(OCCCCCCN2CCC(c3cccc(NC(=O)C(C)C)c3)CC2)c1` [Example 383], the Ki was determined as 290 nM.
On to `CC(=O)c1cccc(OCCCCCCN2CCC(c3cccc(NC(=O)C4CC4)c3)CC2)c1` [Example 384], for which the Ki was found to be 69 nM.
With `CC(C)C(=O)Nc1cccc(C2CCN(CCCC(Oc3ccc(Cl)cc3)c3ccc(Cl)cc3)CC2)c1` (centres unmarked) [Example 385], the inhibition constant (Ki) came out at 325 nM.
Consider `CC(C)C(=O)Nc1cccc(C2CCN(CCc3c(-c4ccccc4)n(C)c4ccccc34)CC2)c1` [Example 386], for which the Ki was found to be 26.3 nM.
With `CC(C)C(=O)Nc1cccc(C2CCN(CCc3c(-c4ccccc4)[nH]c4c3ccc3ccccc34)CC2)c1` [Example 387], the Ki was determined as 19.7 nM.
`CC(C)C(=O)Nc1cccc(C2CCN(CCCc3c(-c4ccccc4)[nH]c4c3ccc3ccccc34)CC2)c1` [Example 388]: the inhibition constant Ki worked out at 20.7 nM.
`CC(C)C(=O)Nc1cccc(C2CCN(CCCc3c(-c4ccccc4)[nH]c4ccc(OC(F)(F)F)cc34)CC2)c1` [Example 389]: the Ki was 2.2 nM.
Consider `CC(C)C(=O)Nc1cccc(C2CCN(CCCCc3c(-c4ccccc4)[nH]c4ccc(OC(F)(F)F)cc34)CC2)c1` [Example 390], for which the Ki came out at 1 nM.
As to `CC(C)C(=O)Nc1cccc(C2CCN(CCCc3c(-c4ccccc4)n(C)c4ccccc34)CC2)c1` [Example 391], the Ki was found to be 21.9 nM.
As to `CC(C)C(=O)Nc1cccc(C2CCN(CCCCc3c(-c4ccccc4)n(-c4ccccc4)c4ccccc34)CC2)c1` [Example 392], the Ki was found to be 18.1 nM.
`CC(C)C(=O)Nc1cccc(C2CCN(CCCCCc3c(-c4ccccc4)[nH]c4ccc(OC(F)(F)F)cc34)CC2)c1` [Example 393]: the Ki was 9.5 nM.
As for `CC(C)C(=O)Nc1cccc(C2CCN(CCCCCc3c(-c4ccccc4)n(C)c4ccccc34)CC2)c1` [Example 395], the Ki is 2.4 nM.
Still for that read-out and setting: to `CC(C)C(=O)Nc1cccc(C2CCN(CCCCCc3c(-c4ccccc4)[nH]c4c3ccc3ccccc34)CC2)c1` [Example 398] belongs 13.6 nM; to `CC(C)C(=O)Nc1cccc(C2CCN(Cc3cn(-c4ccccc4C(F)(F)F)c4ccccc34)CC2)c1` [Example 448], 61 nM.
For the compound `COc1ccc2[nH]cc(CN3CCC(c4cccc(NC(=O)C(C)C)c4)CC3)c2c1` [Example 449], the Ki was 623 nM.

The assay is the same for the next values; noted with them: cloned rat MCH1 receptor; 0.08 nM [3H] Compound A; Peakr293 cell membranes; read-out: Ki (nM) rMCH1.
Turning to `Cc1ccc2[nH]c(-c3ccccc3)c(CCN3CCC(c4cccc(NC(=O)C(C)C)c4)CC3)c2c1` [Example 399], the Ki stood at 31.9 nM.
Take `COc1cccc2c(CCN3CCC(c4cccc(NC(=O)C(C)C)c4)CC3)c(-c3ccccc3)[nH]c12` [Example 400]: the Ki amounted to 43.9 nM.
On to `Cc1cccc2c(CCN3CCC(c4cccc(NC(=O)C(C)C)c4)CC3)c(-c3ccccc3)[nH]c12` [Example 401], for which the Ki was found to be 44.6 nM.
Turning to `Cc1cccc2c(CCCCN3CCC(c4cccc(NC(=O)C(C)C)c4)CC3)c(-c3ccccc3)[nH]c12` [Example 403], the Ki is 11.7 nM.
On to `COc1cccc2c(CCCCN3CCC(c4cccc(NC(=O)C(C)C)c4)CC3)c(-c3ccccc3)[nH]c12` [Example 406], for which the Ki amounted to 12.3 nM.
For the compound `CC(C)C(=O)Nc1cccc(C2CCN(CCCc3cn(-c4ccccc4)c4ccccc34)CC2)c1` [Example 407], the Ki is 16.6 nM.
Still for that read-out and setting: to `CC(C)C(=O)Nc1cccc(C2CCN(CCc3cn(-c4ccccc4)c4ccccc34)CC2)c1` [Example 408] belongs 21.6 nM.
For the compound `Cc1cccc2c(CCN3CCC(c4cccc(NC(=O)C(C)C)c4)CC3)c[nH]c12` [Example 409], the inhibition constant Ki is 96.7 nM.
Still for that read-out and setting: to `CC(C)C(=O)Nc1cccc(C2CCN(CCc3cn(C)c4ccccc34)CC2)c1` [Example 410] belongs 263 nM.
Consider `Cc1ccc2[nH]cc(CCN3CCC(c4cccc(NC(=O)C(C)C)c4)CC3)c2c1` [Example 411], for which the Ki was determined as 82.3 nM.
For the compound `CC(C)C(=O)Nc1cccc(C2CCN(CCc3c[nH]c4ccc(OC(F)(F)F)cc34)CC2)c1` [Example 412], the inhibition constant (Ki) turned out to be 27 nM.
For `CC(C)C(=O)Nc1cccc(C2CCN(CCCc3c[nH]c4c3ccc3ccccc34)CC2)c1` [Example 413], the Ki is 76.8 nM.
Consider `CC(C)C(=O)Nc1cccc(C2CCN(CCCc3cn(C)c4ccccc34)CC2)c1` [Example 414], for which the inhibition constant Ki amounted to 2.9 nM.
The same measure, in the same setting: as for `Cc1ccc2[nH]cc(CCCN3CCC(c4cccc(NC(=O)C(C)C)c4)CC3)c2c1` [Example 415], the figure is 8.1 nM; as for `CC(C)C(=O)Nc1cccc(C2CCN(CCCc3c[nH]c4ccc(OC(F)(F)F)cc34)CC2)c1` [Example 416], 12.6 nM.
On to `Cc1cccc2c(CCCN3CCC(c4cccc(NC(=O)C(C)C)c4)CC3)c[nH]c12` [Example 417], for which the Ki was 20.5 nM.
As for `COc1cccc2c(CCCN3CCC(c4cccc(NC(=O)C(C)C)c4)CC3)c[nH]c12` [Example 418], the Ki was determined as 51.6 nM.
Turning to `COc1cccc2c(CCN3CCC(c4cccc(NC(=O)C(C)C)c4)CC3)c[nH]c12` [Example 419], the Ki is 83.9 nM.
Take `Cc1ccc2[nH]c(-c3ccccc3)c(CCCCN3CCC(c4cccc(NC(=O)C(C)C)c4)CC3)c2c1` [Example 421]: the Ki was 1.8 nM.
Turning to `Cc1ccc(-n2cc(CN3CCC(c4ccc(NC(=O)C(C)C)cc4)CC3)c3ccccc32)cc1` [Example 422], the Ki worked out at 173 nM.
Take `CCCC(=O)Nc1ccc(C2CCN(Cc3cn(-c4ccc(C)cc4)c4ccccc34)CC2)cc1` [Example 423]: the Ki came to 405 nM.
On to `CC(C)C(=O)Nc1cccc(C2CCN(Cc3c(-c4ccccc4N)[nH]c4ccccc34)CC2)c1` [Example 424], for which the Ki was 114 nM.
On to `CCOC(=O)c1[nH]c2ccccc2c1CN1CCC(c2cccc(NC(=O)C(C)C)c2)CC1` [Example 425, ETHYL 3-({4-[3-(ISOBUTYRYLAMINO)PHENYL]-1-PIPERIDINYL}METHYL)-1H-INDOLE-2-CARBOXYLATE], for which the Ki was 599 nM.
As for `CC(C)C(=O)Nc1cccc(C2CCN(Cc3cn(C)c4ccccc34)CC2)c1` [Example 426], the Ki stood at 556 nM.
Same read-out and setting: as for `COc1ccc2[nH]c(C)c(CN3CCC(c4cccc(NC(=O)C(C)C)c4)CC3)c2c1` [Example 427], the figure is 248 nM; as for `CC(C)C(=O)Nc1cccc(C2CCN(Cc3c(-c4ccccc4)n(C)c4ccccc34)CC2)c1` [Example 428], 132 nM; as for `CC(C)C(=O)Nc1cccc(C2CCN(Cc3c[nH]c4ccc([N+](=O)[O-])cc34)CC2)c1` [Example 429], 121 nM.
Still for that read-out and setting: as for `Cc1[nH]c2ccccc2c1CN1CCC(c2cccc(NC(=O)C(C)C)c2)CC1` [Example 430], the figure is 647 nM.
Consider `CC(C)C(=O)Nc1cccc(C2CCN(Cc3c[nH]c4cccc(Br)c34)CC2)c1` [Example 431], for which the inhibition constant Ki stood at 968 nM.
As for `CC(C)C(=O)Nc1cccc(C2CCN(Cc3c(-c4ccc(F)cc4)[nH]c4ccccc34)CC2)c1` [Example 432], the Ki was found to be 198 nM.
For the compound `CC(C)C(=O)Nc1cccc(C2CCN(Cc3c(-c4ccccc4)n(-c4ccccc4)c4ccccc34)CC2)c1` [Example 433], the Ki amounted to 30.4 nM.
Turning to `CCn1c(-c2ccc(Cl)cc2)c(CN2CCC(c3cccc(NC(=O)C(C)C)c3)CC2)c2ccccc21` [Example 434], the Ki was determined as 214 nM.
Regarding `Cc1[nH]c2ccc(Cl)cc2c1CN1CCC(c2cccc(NC(=O)C(C)C)c2)CC1` [Example 435], the Ki is 215 nM.
As for `CC(C)C(=O)Nc1cccc(C2CCN(Cc3c[nH]c4ccc(C#N)cc34)CC2)c1` [Example 436], the Ki was 434 nM.
The same measure, in the same setting: as for `Cc1ccc2[nH]c(-c3ccccc3)c(CN3CCC(c4cccc(NC(=O)C(C)C)c4)CC3)c2c1` [Example 437], the figure is 552 nM; as for `CC(C)C(=O)Nc1cccc(C2CCN(Cc3cn(-c4ccc([N+](=O)[O-])cc4)c4ccccc34)CC2)c1` [Example 438], 1.3 nM.
As to `CC(C)C(=O)Nc1cccc(C2CCN(Cc3cn(-c4ccccc4F)c4ccccc34)CC2)c1` [Example 439], the Ki was found to be 8.5 nM.
For `COc1cc2[nH]cc(CN3CCC(c4cccc(NC(=O)C(C)C)c4)CC3)c2cc1OC` [Example 440], the Ki is 107 nM.
Consider `Cc1cccc(-n2cc(CN3CCC(c4cccc(NC(=O)C(C)C)c4)CC3)c3ccccc32)c1` [Example 441], for which the Ki amounted to 10.1 nM.
For the compound `CC(C)C(=O)Nc1cccc(C2CCN(Cc3cn(-c4cccc(C(F)(F)F)c4)c4ccccc34)CC2)c1` [Example 442], the Ki turned out to be 7.8 nM.
`COc1ccc(-n2cc(CN3CCC(c4cccc(NC(=O)C(C)C)c4)CC3)c3ccccc32)cc1` [Example 443]: the Ki stood at 23.4 nM.
The same measure, in the same setting: to `COc1ccc2[nH]c(-c3ccccc3)c(CN3CCC(c4cccc(NC(=O)C(C)C)c4)CC3)c2c1` [Example 444] belongs 545 nM; to `Cc1ccc2[nH]cc(CN3CCC(c4cccc(NC(=O)C(C)C)c4)CC3)c2c1` [Example 445], 486 nM; to `CC(C)C(=O)Nc1cccc(C2CCN(Cc3cn(-c4ccccc4[N+](=O)[O-])c4ccccc34)CC2)c1` [Example 446], 17.9 nM.
On the same count and under the same terms, to `COc1ccccc1-n1cc(CN2CCC(c3cccc(NC(=O)C(C)C)c3)CC2)c2ccccc21` [Example 447] belongs 9.8 nM.
`CC(C)C(=O)Nc1cccc(C2CCN(Cc3cn(-c4ccccc4C(F)(F)F)c4ccccc34)CC2)c1` [Example 448]: the Ki was determined as 61 nM.
On to `COc1ccc2[nH]cc(CN3CCC(c4cccc(NC(=O)C(C)C)c4)CC3)c2c1` [Example 449], for which the Ki amounted to 623 nM.
As to `CC(C)C(=O)Nc1cccc(C2CCN(Cc3cn(-c4ccc(F)cc4)c4ccccc34)CC2)c1` [Example 450], the inhibition constant (Ki) is 7.1 nM.
In the case of `COc1cccc(-n2cc(CN3CCC(c4cccc(NC(=O)C(C)C)c4)CC3)c3ccccc32)c1` [Example 451], the Ki was found to be 18.7 nM.
Consider `Cc1ccccc1-n1cc(CN2CCC(c3cccc(NC(=O)C(C)C)c3)CC2)c2ccccc21` [Example 452], for which the inhibitory constant (Ki) was 12.7 nM.
